Assay results: patent publication US11628186B2, “Method and composition for the reduction of viral replication, duration and spread of the COVID-19 and the flu” (priority 2017, dated 2023)

What was measured:
[1] = system: patients with lung diseases including COPD; assay: Comparison of inhaled salts of pyruvate, 5 ml of 5 mM solution (Table II)
[2] = system: patients with or without lung damage; assay: Controlled inhalation studies of 20 mM sodium pyruvate in saline; type: in vivo, human
Method: Sodium chloride is mainly used as nasal or lung moisturizer. […] They produce no change to FEV-1 or SaO2 measurements. It must be noted that there is a difference between people who have transient hypoxemia vs. one that has permanent hypoxemia. The patients respond differently to the inhalation of 20 mM sodium pyruvate in saline by itself without calcium, phosphate and magnesium. Sodium pyruvate formulations both given orally or by inhalation will increase SaO2 levels in people without lung injury to the alveoli structure especially the mitochondria that can synthesis the phospholipids needed for oxygen exchange and uptake. Transient hypoxemia is a self-correcting effect. It occurs in over exercising, mountain climbing etc. […] In patients with infections, i.e. CF and allergic Rhinitis, Nitric Oxide increase by over 400% over base line measurements with the use of the sodium pyruvate, calcium, phosphate and magnesium formula, needed to fight infections and lung cancer (see table IV).

[3] = system: patients with various cancers and chronic Hypoxemia; assay: Cancer trial pilot study; type: in vivo, human; settings: in saline, without calcium, phosphate and magnesium
Method: In eleven patients with various cancers and chronic Hypoxemia, five with lung cancer, including three with non-small cell lung cancer and six with various other cancers, […], which increased SaO2 levels in these patients to enhance the effect of the chemotherapy or radiation, and increased the synthesis of lung surfactants in lung alveoli cells to protect normal cells and help reduce hypoxia in cancer cells. These patients inhaled the formula one to two hours before they were treated with cancer drugs or radiation, given by current standard methods, and continued to inhale the surfactant enhancer formula twice a day for the eight weeks following the chemo therapy treatment. Because these patients are older, they often lack good nutritional eating habits, which effects their immune system. Thus, the patients were also given a proprietary diet high in a unique blend of antioxidants, and nutrients, that they consumed every day before and after chemo or radiation. Good nutrition is always a plus when patients undergo chemo or radiation as sited in numerous published articles. The diet specifically designed for patients with cancer and hypoxemia included calcium pyruvate, dicalcium phosphate and magnesium in their components. […]

[4] = Rat studies of irritation or toxicity; type: in vivo; settings: 100× concentrations of the 5 mM sodium pyruvate
Description: Ethane and alcohol are lung irritants.

[5] = system: patients with sinus & lung diseases including IPF and COPD; assay: Salts of pyruvate as 20 mM nasal sprays (Table IX)
Description: They never tested the individual salts for their ability to reduce inflammation or increase lung functions.

[6] = system: patients with sinus & lung diseases including IPF and COPD; assay: 20 mM sodium pyruvate nasal sprays with individual or combined ions (Table X); type: in vivo, human
Description: This patent combined dozens of ingredients, including the use of enzyme, growth factors, sugars, nucleotide and vitamins, amino acids and sodium pyruvate, other nutrients and calcium chloride, magnesium chloride and calcium phosphate other ingredients to stimulate the growth of cartilage and collagen for knees and joints.

[7] = 20 mM (0.22%) nasal spray in 0.9% sodium chloride
[8] = 20 mM sodium pyruvate nasal spray in saline with the listed ions

## CC(=O)C(=O)[O-].[Na+] [Sodium, sodium pyruvate]
[1]; 5 ml of 5 mM solution in saline, inhaled
  Increased in FEV-1%: 2.0%
[1]; 5 ml of 5 mM solution, inhaled
  Irritation: none
  Percentage Increase in SaO2 over baseline: 1%
  Percentage increase of Nitric Oxide over baseline: 19.0%
  Relief of congestion, coughing and lung tightness: 5
[1]; 5 ml of 5 mM solution, 1 most negative, 10 best
  Overall Rating 1-10: 8
[2]; Patients with lung damage, like in smokers, 20 mM without calcium, phosphate and magnesium
  SaO2 levels: did not show an increase SaO2 levels
[2]; patients with no lung injuries or disease, after exercising, 20 mM in saline
  increase of SaO2, average: 3%
[3]
  raises nitric oxide: 19%
[4]
  irritation or toxicity: not to have any irritation or toxicity
[5]; [7]
  Increased in FEV-1%: 12.0%
  Irritation: none
  Percentage Increase in SaO2 over baseline: 2%
  Percentage increase of Nitric Oxide over baseline: 19.0%
  Relief of congestion, coughing and lung tightness: 6
[5]; 20 mM (0.22%) nasal spray, 1 most negative, 10 best
  Overall Rating 1-10: 7
[6]; [8]
  Increased in FEV-1%: 12.0%
  Irritation: None
  Percentage Increase in SaO2 over baseline: 2%
  Percentage increase of Nitric Oxide over baseline: 20.0%
  Relief of congestion, coughing and lung tightness: 6
[6]; 1 most negative, 10 best
  Overall Rating 1-10: 7
